Measured values from ChEMBL document CHEMBL4052742, “Optimization of 1H-indazol-3-amine derivatives as potent fibroblast growth factor receptor inhibitors” (Bioorg Med Chem Lett, 2017).

What was measured:
KG-1 = experiment: Antiproliferative activity against human KG1 cells after 72 hrs by CCK-8 assay; conditions: KG-1, 72 h
SNU-16 = experiment: Antiproliferative activity against human SNU16 cells after 72 hrs by CCK-8 assay; conditions: SNU-16, 72 h
[1] = biological target: Fibroblast growth factor receptor 2 (Homo sapiens, UniProt P21802); experiment: Inhibition of recombinant FGFR2 (unknown origin) using poly (Glu,Tyr)4:1 as substrate after 60 mins by ELISA based spectrophotometric analysis
Sequence of Fibroblast growth factor receptor 2 (P21802 whole entry): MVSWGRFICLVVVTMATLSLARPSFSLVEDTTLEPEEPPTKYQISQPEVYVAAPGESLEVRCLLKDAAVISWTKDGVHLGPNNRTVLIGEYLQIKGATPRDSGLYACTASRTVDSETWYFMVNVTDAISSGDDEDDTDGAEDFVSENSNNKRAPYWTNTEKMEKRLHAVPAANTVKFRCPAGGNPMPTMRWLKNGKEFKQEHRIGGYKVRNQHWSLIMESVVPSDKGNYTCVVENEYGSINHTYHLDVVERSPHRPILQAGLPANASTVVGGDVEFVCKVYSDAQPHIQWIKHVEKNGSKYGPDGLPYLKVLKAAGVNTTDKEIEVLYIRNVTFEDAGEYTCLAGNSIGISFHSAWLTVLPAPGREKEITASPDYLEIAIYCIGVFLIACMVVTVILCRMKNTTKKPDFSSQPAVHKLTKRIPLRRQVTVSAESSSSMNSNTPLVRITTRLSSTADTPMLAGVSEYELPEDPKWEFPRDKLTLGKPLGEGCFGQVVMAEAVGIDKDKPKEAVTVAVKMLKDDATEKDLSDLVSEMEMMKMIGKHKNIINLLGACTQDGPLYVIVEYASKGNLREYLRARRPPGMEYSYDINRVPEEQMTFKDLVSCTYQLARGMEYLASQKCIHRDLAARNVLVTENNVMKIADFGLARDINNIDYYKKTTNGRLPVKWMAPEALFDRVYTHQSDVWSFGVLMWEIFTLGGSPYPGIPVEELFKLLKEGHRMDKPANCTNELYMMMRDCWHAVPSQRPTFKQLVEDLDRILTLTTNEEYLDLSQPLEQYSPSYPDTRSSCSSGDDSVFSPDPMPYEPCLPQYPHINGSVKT

[2] = biological target: Fibroblast growth factor receptor 1 (Homo sapiens, UniProt P11362); experiment: Inhibition of recombinant FGFR1 (unknown origin) using poly (Glu,Tyr)4:1 as substrate after 60 mins by ELISA based spectrophotometric analysis
Sequence of Fibroblast growth factor receptor 1 (P11362 whole entry): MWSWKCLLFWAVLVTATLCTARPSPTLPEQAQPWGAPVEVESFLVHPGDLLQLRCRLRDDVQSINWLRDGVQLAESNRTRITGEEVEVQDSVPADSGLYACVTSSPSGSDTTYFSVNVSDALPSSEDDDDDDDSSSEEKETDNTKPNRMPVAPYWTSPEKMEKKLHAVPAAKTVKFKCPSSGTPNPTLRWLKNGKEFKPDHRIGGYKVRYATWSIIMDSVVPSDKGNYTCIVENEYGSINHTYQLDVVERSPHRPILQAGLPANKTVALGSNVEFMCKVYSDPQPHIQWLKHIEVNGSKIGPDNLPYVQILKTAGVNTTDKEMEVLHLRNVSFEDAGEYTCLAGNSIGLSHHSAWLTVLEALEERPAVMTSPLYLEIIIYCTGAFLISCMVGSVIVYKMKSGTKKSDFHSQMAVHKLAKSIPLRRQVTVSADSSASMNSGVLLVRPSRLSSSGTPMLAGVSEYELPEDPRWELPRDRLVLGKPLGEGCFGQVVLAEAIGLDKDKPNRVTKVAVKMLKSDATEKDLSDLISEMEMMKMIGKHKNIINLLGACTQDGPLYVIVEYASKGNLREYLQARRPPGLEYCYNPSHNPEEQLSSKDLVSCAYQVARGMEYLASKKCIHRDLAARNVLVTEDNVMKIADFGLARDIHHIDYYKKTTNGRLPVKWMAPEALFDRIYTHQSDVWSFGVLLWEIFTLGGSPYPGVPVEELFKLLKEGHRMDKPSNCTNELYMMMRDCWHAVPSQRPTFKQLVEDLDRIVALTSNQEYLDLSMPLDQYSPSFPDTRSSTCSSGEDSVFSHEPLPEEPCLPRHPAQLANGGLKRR

SMILES | IC50 (SNU-16) | IC50 [1] | IC50 [2] | IC50 (KG-1)
COc1cc(CCc2cc(NC(=O)c3ccc(N4C[C@@H](C)N[C@@H](C)C4)cc3)n[nH]2)cc(OC)c1 [FEXAGRATINIB] | 3.4 nM |  |  | 3.3 nM
COc1ccc(F)c(-c2ccc3c(NC(=O)c4ccc(N5CCN(C(C)=O)CC5)cc4)n[nH]c3c2)c1F | 322 nM | 2.9 nM |  | 595 nM
COc1ccc(F)c(-c2ccc3c(NC(=O)c4ccc(N5CCCN(C)CC5)cc4)n[nH]c3c2)c1F | 102 nM |  |  | 51.5 nM
COc1ccc(F)c(-c2ccc3c(NC(=O)c4ccc(N5CCN(C)CC5)cc4)n[nH]c3c2)c1F | 35.6 nM | < 4.1 nM |  | 41.5 nM
COc1ccc(F)c(-c2ccc3c(NC(=O)c4ccc(N5C[C@@H](C)N[C@@H](C)C5)cc4)n[nH]c3c2)c1F | 582 nM |  |  | 348 nM
COCCN1CCN(c2ccc(C(=O)Nc3n[nH]c4cc(-c5c(F)cc(F)c(OC)c5F)ccc34)cc2)CC1 | > 1000 nM |  |  | > 1000 nM
COc1ccc(F)c(-c2ccc3c(NC(=O)c4ccc(N(C)CCN(C)C)cc4)n[nH]c3c2)c1F | 366 nM |  |  | 333 nM

More lines, main results first:

IC50 (SNU-16) | IC50 [1] | IC50 [2] | SMILES | IC50 (KG-1)
> 1000 nM |  |  | CCN1CCN(c2ccc(C(=O)Nc3n[nH]c4cc(-c5c(F)cc(F)c(OC)c5F)ccc34)cc2)CC1 | > 1000 nM
591 nM |  |  | CCN1CCN(c2ccc(C(=O)Nc3n[nH]c4cc(-c5cccc(OC)c5F)ccc34)cc2)CC1 | 284 nM
77.4 nM |  | < 4.1 nM | CCN1CCN(c2ccc(C(=O)Nc3n[nH]c4cc(-c5c(F)ccc(OC)c5F)ccc34)cc2)CC1 | 25.3 nM
> 1000 nM | > 1000 nM | > 1000 nM | COc1cccc(-c2ccc3c(NC(=O)c4ccc(N5CCN(C)CC5)cc4F)n[nH]c3c2)c1F | > 1000 nM
> 1000 nM |  |  | COc1cccc(-c2ccc3c(NC(=O)c4ccc(N5CCN(C)CC5)c(F)c4)n[nH]c3c2)c1F | > 1000 nM
431 nM |  |  | COCCN1CCN(c2ccc(C(=O)Nc3n[nH]c4cc(-c5c(F)ccc(OC)c5F)ccc34)cc2)CC1 | 47.3 nM
> 1000 nM | > 1000 nM | > 1000 nM | CCN1CCN(c2ccc(C(=O)Nc3n[nH]c4cc(-c5cccc(OC)c5F)ccc34)cc2C(F)(F)F)CC1 | > 1000 nM
> 1000 nM |  |  | CCN1CCN(c2ccc(C(=O)Nc3n[nH]c4cc(-c5cccc(OC)c5F)cc(F)c34)cc2)CC1 | > 1000 nM
> 1000 nM |  |  | CCN1CCN(c2ccc(C(=O)Nc3n[nH]c4cc(-c5cccc(OC)c5F)c(F)cc34)cc2)CC1 | 684 nM
